ChEMBL document CHEMBL1201862, “PubChem BioAssay data set” (2004)
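How tested: cells in 96-well plates exposed to compound for 48 hours at five concentrations. The concentration for 50% growth inhibition is given as GI50.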 The source made the active and inactive calls. Cut-off read from the data, not from the text of the source: active = GI50 up to about 1.1 µM and inactive = higher.

Columns and labels:
Test in all cases: growth of human tumour cells (NCI), 48 h
[1] = system: RXF 393
[2] = system: SF-539
[3] = system: DU-145
[4] = system: CAKI-1
[5] = system: HOP-62
[6] = system: MDA-MB-231
[7] = system: HCT-116
[8] = system: HL-60
[9] = system: SN12C
[10] = system: SF-268
[11] = system: MDA-MB-435
[12] = system: M14
[13] = system: NCI-H460
[14] = system: U-251
[15] = system: HOP-92
[16] = system: MOLT-4
[17] = system: COLO 205
[18] = system: OVCAR-5
[19] = system: LOX IMVI
[20] = system: SR

Measured: GI50

O=c1c(C(c2ccc(OCc3ccccc3)cc2)c2c(O)oc3ccccc3c2=O)c(O)oc2ccccc12
inactive: [1] > 100 µM | [2] 39.6 µM | [3] 67.6 µM | [4] 27.2 µM | [5] 47.5 µM | [6] 27 µM | [7] 36.8 µM | [8] 32.8 µM | [9] 30.4 µM | [10] 29.4 µM | [11] 41.9 µM | [12] 48.1 µM | [13] 35 µM | [14] 39.5 µM | [15] 36.2 µM | [16] 37.3 µM | [17] 46 µM | [18] 75.2 µM | [19] 34.2 µM

Oc1ccc2ccccc2c1NCn1nc(CCCCCCCCc2nn(CNc3c(O)ccc4ccccc34)c(=S)o2)oc1=S
inactive: [3] > 100 µM | [4] > 100 µM | [5] > 100 µM | [6] > 100 µM | [7] 6.49 µM | [9] > 100 µM | [10] > 100 µM | [11] 38.7 µM | [12] 44.8 µM | [13] > 100 µM | [14] > 100 µM | [15] > 100 µM | [16] > 100 µM | [17] > 100 µM | [18] > 100 µM

Cn1c(N=P(c2ccccc2)(c2ccccc2)c2ccccc2)c([N+](=O)[O-])c(=O)n(C)c1=O
inactive: [1] > 100 µM | [2] > 100 µM | [4] > 100 µM | [5] 48 µM | [6] 32.2 µM | [7] 36.6 µM | [9] 56.2 µM | [10] 78.7 µM | [11] 35.2 µM | [12] 31.6 µM | [13] 43.4 µM | [14] 66.2 µM | [15] > 100 µM | [16] 21.2 µM | [17] 44.5 µM | [18] > 100 µM | [19] 35.9 µM

COc1ccccc1C(=O)c1c(N2CCCCC2)c(=O)c1=O
inactive: [1] > 100 µM | [2] > 100 µM | [3] > 100 µM | [4] > 100 µM | [5] > 100 µM | [6] > 100 µM | [7] > 100 µM | [8] > 100 µM | [9] > 100 µM | [10] > 100 µM | [11] > 100 µM | [12] > 100 µM | [13] > 100 µM | [14] > 100 µM | [15] > 100 µM | [16] > 100 µM | [17] > 100 µM | [18] > 100 µM | [19] > 100 µM

CC(=O)c1c(-c2ccccc2)c(-c2ccc(OCCN(C)C)cc2)n2ccccc12
inactive: [2] 13.9 µM | [3] 16.8 µM | [4] 18.5 µM | [6] 16.9 µM | [7] 13.3 µM | [8] 16.3 µM | [9] 16 µM | [10] 16.8 µM | [11] 17.7 µM | [12] 16.7 µM | [13] 13.2 µM | [14] 17 µM | [15] 10.1 µM | [16] 15 µM | [17] 14 µM | [18] 47.8 µM | [19] 15.7 µM

CC1=NN(c2nc(N)nc(CO)n2)C(C)(C)C1
inactive: [1] > 100 µM | [2] > 100 µM | [3] > 100 µM | [4] > 100 µM | [5] > 100 µM | [6] > 100 µM | [7] > 100 µM | [8] > 100 µM | [9] > 100 µM | [10] > 100 µM | [11] > 100 µM | [12] > 100 µM | [14] > 100 µM | [15] > 100 µM | [16] > 100 µM | [17] > 100 µM | [18] > 100 µM | [19] > 100 µM

N#Cc1c(N)nc(S)c(C#N)c1-c1ccccc1
inactive: [1] > 100 µM | [2] > 100 µM | [3] > 100 µM | [4] 88.1 µM | [5] > 100 µM | [6] > 100 µM | [7] > 100 µM | [8] > 100 µM | [9] > 100 µM | [10] > 100 µM | [20] > 100 µM | [13] > 100 µM | [14] > 100 µM | [16] > 100 µM | [18] > 100 µM | [19] > 100 µM

CCCCN1C(=O)N(c2ccc(OCC)cc2)C2N(CCCC)C1C(C)(C)C2(C)C (stereo not drawn)
inactive: [1] 16.3 µM | [2] 16.7 µM | [3] 30.1 µM | [4] 26.3 µM | [5] 35.9 µM | [6] 41.5 µM | [7] 31.6 µM | [9] 30.3 µM | [10] 21.9 µM | [11] 20.2 µM | [12] 25.1 µM | [13] 42.2 µM | [14] 37 µM | [15] 23.5 µM | [17] 22.5 µM | [19] 7.71 µM

N#CC(C(=O)C(=O)C(C#N)c1ccc(Br)cc1)c1ccc(Br)cc1 (stereo not drawn)
inactive: [1] 4.26 µM | [2] 15.5 µM | [4] 21 µM | [5] 13.2 µM | [7] 14.1 µM | [8] 4.06 µM | [9] 14.5 µM | [10] 10.5 µM | [12] 14.2 µM | [20] 6.37 µM | [13] 16 µM | [14] 11.6 µM | [15] 13.3 µM | [16] 4.4 µM | [17] 16.5 µM | [18] 18.2 µM | [19] 11 µM

CC(=O)c1cccc(Nc2nc3ccc(Cl)cc3c3[nH]c4ccccc4c23)c1
inactive: [2] 5.28 µM | [3] 4.35 µM | [4] 3.03 µM | [5] 4.17 µM | [6] 11.6 µM | [7] 3.85 µM | [9] 13.1 µM | [10] 3.99 µM | [11] 7.26 µM | [12] 11 µM | [13] 1.71 µM | [14] 2.12 µM | [15] 3.48 µM | [17] 2.07 µM | [18] 5.79 µM

N/N=C(\CCN1CCCC1)CC(c1ccccc1)c1c(O)c2ccccc2oc1=O (stereo not drawn)
inactive: [1] > 100 µM | [2] > 100 µM | [4] > 100 µM | [5] > 100 µM | [7] > 100 µM | [8] > 100 µM | [9] > 100 µM | [10] > 100 µM | [12] > 100 µM | [20] > 100 µM | [13] > 100 µM | [14] > 100 µM | [15] 49 µM | [16] > 100 µM | [17] > 100 µM | [18] > 100 µM | [19] > 100 µM

N=C(N)SCCSC(=N)N
inactive: [1] > 100 µM | [3] > 100 µM | [4] > 100 µM | [5] > 100 µM | [6] > 100 µM | [7] > 100 µM | [9] > 100 µM | [10] > 100 µM | [11] > 100 µM | [12] > 100 µM | [13] > 100 µM | [14] > 100 µM | [15] > 100 µM | [16] > 100 µM | [17] > 100 µM | [18] > 100 µM | [19] > 100 µM
